# Measured values from patent publication US5770617A, “Terbenzimidazoles useful as antifungal agents” (Rutgers, The State University of New Jersey, priority 1997, dated 1998).
# Tests used:
# [1] = biological target: T1, calf thymus topoisomerase I (Bos taurus, UniProt F1MN93); experiment: Topoisomerase I-mediated DNA cleavage assay (calf thymus enzyme); format: biochemical; conditions: for Topo I-mediated DNA cleavage (REC, Relative Effective Concentration): concentration relative to Hoechst 33342 (arbitrarily 1) producing the same cleavage on plasmid DNA, calf thymus topoisomerase I
# T1 construct: DNA topoisomerase I was purified from calf thymus gland as reported previously; from tissue; host or cells: calf thymus gland
# T1 sequence (F1MN93 1-767): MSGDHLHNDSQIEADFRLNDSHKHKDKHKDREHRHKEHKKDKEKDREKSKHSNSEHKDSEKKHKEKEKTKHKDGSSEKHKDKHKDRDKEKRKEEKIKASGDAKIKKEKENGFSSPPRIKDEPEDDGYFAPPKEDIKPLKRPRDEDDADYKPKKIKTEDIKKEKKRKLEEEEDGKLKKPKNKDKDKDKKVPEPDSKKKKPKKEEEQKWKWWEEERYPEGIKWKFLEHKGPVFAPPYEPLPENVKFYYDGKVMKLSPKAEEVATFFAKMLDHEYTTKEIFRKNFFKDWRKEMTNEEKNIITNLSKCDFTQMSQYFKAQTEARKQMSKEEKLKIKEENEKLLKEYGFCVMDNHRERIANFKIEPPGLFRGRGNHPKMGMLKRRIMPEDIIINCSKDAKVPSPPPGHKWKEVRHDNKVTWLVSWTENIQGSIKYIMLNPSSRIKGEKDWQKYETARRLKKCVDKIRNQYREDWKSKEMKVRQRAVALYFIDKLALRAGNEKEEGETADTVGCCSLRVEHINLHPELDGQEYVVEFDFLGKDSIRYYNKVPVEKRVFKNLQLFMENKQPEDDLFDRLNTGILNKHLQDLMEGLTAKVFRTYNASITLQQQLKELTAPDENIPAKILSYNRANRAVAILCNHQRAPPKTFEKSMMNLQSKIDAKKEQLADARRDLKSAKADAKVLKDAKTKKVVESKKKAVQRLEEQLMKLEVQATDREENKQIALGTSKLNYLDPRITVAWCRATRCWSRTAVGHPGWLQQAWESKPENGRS
# Description: A. Topoisomerase I-Mediated DNA Cleavage Assays
# DNA topoisomerase I was purified from calf thymus gland as reported previously by B. D. Halligan et al., J. Biol. Chem., 260, 2475 (1985).
# Plasmid YEpG was also purified by the alkali lysis method followed by phenol deproteination and CsCl/ethidium isopycnic centrifugation as described by T. Maniatis et al., Molecular Cloning, A Laboratory Manual, Cold Spring Harbor Labs, N.Y. (1982) at pages 149-185. The end-labeling of the plasmid was accomplished as previously described by L. F. Liu et al., J. Biol. Chem., 258, 15365 (1983). The cleavage assays were performed as previously reported by A. Y. Chen et al., Cancer Res., 53, 1332 (1993). Human topoisomerase I was isolated as a recombinant fusion protein using a T7 expression system.
# [2] = test system: human epidermoid carcinoma KB3-1 cell line; experiment: MTT cytotoxicity assay, KB3-1; format: cell-based; conditions: KB 3-1, 96 h, read-out: Cytotoxicity IC50 KB3-1
# Protocol: (§1) The cytotoxicity was determined using the as MTT-microtiter plate tetrazolinium cytotoxicity assay (MTA) following the procedures of F. Denizot et al., J. Immunol. Methods, 89, 271 (1986); J. Carmichael et al., Cancer Res, 47, 936 (1987) and T. J. Mosmann et al., Immunol. Methods, 65, 55 (1983). The human lymphoblast RPMI 8402 and its camptothecin-resistant variant cell line, CPT-K5 were provided by Dr. Toshiwo Andoh (Aichi Cancer Center Research Institute, Nagoya, Japan). See, for example, T. Andoh et al., Adv. Pharmacol., 29B, 93 (1994). The cytotoxicity assay was performed using 96-well microtiter plates. Cells were grown in suspension at 37 ° C. in 5% CO2 and maintained by regular passage in RPMI medium supplemented with 10% heat inactivated fetal bovine serum, L-glutamine (2 mM), penicillin (100 U/ml), and streptomycin (0.1 mg/ml). For determination of IC50, cells were exposed continuously with varying concentrations of drug concentrations and MTT assays were performed at the end of the fourth day.
# (§2) The drug sensitive human epidermoid carcinoma KB3-1 cell line (S. Aliyama et al., Somatic Cell Mol. Genet., 11, 117 (1985)) and its vinblastine-selected multidrug-resistant variant KBV-1 cells (D. W. Shen et al., Science, 32, 643 (1986)) were provided by Dr. Michael Gottesmann (National Cancer Institute, Bethesda, Md.). […]
# [3] = test system: KBV-1 cells (multidrug-resistant variant, overexpress MDR1); experiment: MTT cytotoxicity assay, KBV-1; format: cell-based, human
# Protocol: as §1, §2
# [4] = test system: KBV-1 cells (multidrug-resistant variant, overexpress MDR1); conditions: cited from earlier work
# [5] = test system: yeast cells expressing yeast topoisomerase I; experiment: Yeast cytotoxicity assay, yeast topoisomerase I; format: cell-based, S. cerevisiae
# Description: The topoisomerase I-specific in vivo cytotoxicity assay was adapted from A. M. Knab et al., J. Biol. Chem., 268, 22322 (1993). In this system, various topoisomerase I genes or cDNAs cloned into the single-copy yeast plasmid vector (YCpGAL1; Knab et al., cited above) are expressed under the control of the GAL1 promoter in the JN2-134 strain of S. cerevisiae (MAT, rad52::Leu2, trp1, ade2-1, his7, ura3-52, ise1, top1-1, and leu2; M. A. Bjornsti et al., Cancer Res., 49, 6318 (1989)). The topoisomerase I gene or cDNA constructs in the vector are, respectively, the wild-type yeast topoisomerase I gene (YCpGAL-ScTOP1; need cite (1989)), a nonfunctional topoisomerase I gene where the active site tyrosine-727 is mutated to phenylalanine (YCPGAL1-Sctop1Y727; A. M. Knab et al., J. Biol. Chem., 268, 22322 (1993)), and the wild-type human topoisomerase I cDNA (YCp-GAL-hTOP1; M. A. Bjornsti et al., Cancer Res., 49, 6318 (1989)).
# To qualitatively test the cytotoxicity and the topoisomerase I specificity of the drugs, yeast cells containing the specified plasmid were grown in dropout medium supplemented with uracil, 2% galactose, and the drug being tested.
# [6] = test system: CPT-K5 (camptothecin-resistant variant of RPMI 8402); conditions: CPT-K5 versus RPMI 8402; reported by A. Y. Chen et al. 1993; cited from earlier work
structure (smiles),measurement,setting,value
"N#Cc1ccc2[nH]c(-c3ccc4[nH]c(-c5ccc6[nH]cnc6c5)nc4c3)nc2c1 [Compound 11, 5-Cyano-2-[2'-(benzimidazol-5""-yl)benzimidazol-5'-yl]benzimidazole]","Topo I-mediated DNA cleavage (REC, Relative Effective Concentration)",[1],1
"c1ccc(-c2ccc3[nH]c(-c4ccc5[nH]c(-c6ccc7[nH]cnc7c6)nc5c4)nc3c2)cc1 [Compound 13, 5-Phenyl-2-[2'(benzimidazol-5""-yl)benzimidazol-5'-yl]benzimidazole]","potency as topoisomerase I inhibitor compared with Hoechst 33342, in words",[1],approximately one-half as potent
same,"Topo I-mediated DNA cleavage (REC, Relative Effective Concentration)",[1],2
same,IC50,[2],0.58 µM
same,difference between IC50 values in KB 3-1 and KB V-1 cells,[3],little difference
"CCOc1ccc(-c2nc3cc(-c4nc5cc(N6CCN(C)CC6)ccc5[nH]4)ccc3[nH]2)cc1 [Hoechst 33342, 2'-(4-ethoxyphenyl)-5-(4-methyl-1-piperazinyl)-2,5'-bi-1H-benzimidazole]",fold less cytotoxic to KB V-1 cells than to KB 3-1,"[4]; background, previously reported",approximately 130 fold
same,difference of IC50 for KB 3-1 as compared to KB V-1 cells,[4]; reported by A. Y. Chen et al. 1994,approximately two-orders of magnitude
CC[C@@]1(O)C(=O)OCc2c1cc1n(c2=O)Cc2cc3ccccc3nc2-1 [camptothecin],cytotoxicity to yeast cells expressing functional yeast topoisomerase I,[5],camptothecin-sensitive
same,resistance of yeast cells expressing yeast topoisomerase I relative to yeast cells expressing human topoisomerase I,[5],at least ten times more resistant
same,relative resistance (ratio of IC50 of resistant versus drug sensitive cell line),[6],"2,500 fold"
